Test results taken from patent US20100216722A1, “USE OF THE PEPTIDE PRO-GLY-THR-CYS-GLU-ILE-CYS-ALA-TYR-ALA-ALA-CYS-THR-GLY-CYS AS A THERAPEUTIC AGENT” (priority 2007, published 2010).
Positions of bridges follow the written chain, without caps; N, C: chain ends. Residues, ends and D or L forms follow the SMILES beside them.

How the values were obtained:
HepG2-2.2.15 cells = assay: Cytotoxicity in HepG2-2.2.15 cells (dye uptake cell viability); conditions: HepG2-2.2.15 cells; peptide 10 micrograms per ml; dye uptake assay
HIV-1IIIB = assay: HIV-1 antiviral assay (CPE reduction, MTS) in CEM-SS cells; assay type: cell-based; conditions: peptide 10 micrograms per ml, 6 days post-infection
MRC-5 cells = conditions: human, 6 days
Procedure: (§2) For cytotxicity testing, MRC-5 cells were seeded at 2,500 cells/well in 96 well plates using growth medium. […] The following day, peptide was added and tested in duplicates. After a 6 days incubation period, cell viability was measured using CellTiter 96 Solution (Promega). Plates were incubated for additional 4 hours at 37° C. Adhesive plate sealers were used in place of lids, the sealed plates were inverted several times to mix the soluble formazan product and the plate was read spectrophotometrically at 490/560 nm with a Molecular Devices Vmax plate reader.

HCMV strain AD169 = assay: HCMV plaque reduction assay in MRC-5 cells; conditions: HCMV AD169 in MRC-5 cells; peptide 10 micrograms per ml; 7-10 days
[1] = system: hepatitis B virus (HBV) ayw strain; assay: HBV replication assay in HepG2-2.2.15 cells (TaqMan PCR of secreted HBV DNA); assay type: cell-based; conditions: peptide 10 micrograms per ml, six days, HBV DNA in supernatant
A549 cells [2] = assay: Propidium iodide cell cycle assay; assay type: cell-based, human; conditions: peptide 10 micrograms per ml, 24 hours, Propidium iodide FACS
Procedure: Human A549 cells (carcinomic human alveolar basal epithelial cells) were utilized in the experiments employing the Propidium iodide cell cycle assay. The eukaryotic cell cycle is a series of events that take place in a cell leading to its replication. Propidium iodide is an intercalating agent and a fluorescent molecule that can be used to stain DNA. Cells were incubated for 24 hours with test peptide—10 micrograms per ml—or left untreated. […] The cells were pipetted into 2.5 ml absolute EtOH (final concentration approx. 70%) and incubated on ice for 15 min. Thereafter, cells were pelleted at 1500 rpm for 5 min and resuspended in Propidium iodide solution in PBS. After incubation for 40 min at 37° C., cells were analyzed in the FACS.

[3] = system: Human Peripheral Blood Mononuclear Cells (PBMC); assay: T cell proliferation assay (PHA, 3H-thymidine); assay type: cell-based; conditions: peptide 10 micrograms per ml, 3H-thymidine incorporation
Procedure: (§1) Human Peripheral Blood Mononuclear Cells (PBMC) were obtained from normal human donors. The T cell proliferation was induced by stimulation of the cells with the T cell mitogen phytohemagglutinin (PHA), either in the absence (positive proliferation control), or in the presence of test peptide—10 micrograms per ml—to examine their effects on the T cell proliferating response. 10^5/well PBMC were plated in 96-well microtiter plates and assayed in duplicate with the peptide. Cell cultures were incubated at 37° C. for 3 days in a 5% CO2 incubator and were thereafter pulsed with 1 microCi/well ^3H-thymidine for additional 12 hours of culture. At the end of incubation time, the plates were harvested and the cells counted by liquid scintillation for the incorporation of ^3H-thymidine as a measure of T cell proliferation.

[4] = system: Human Peripheral Blood Mononuclear Cells (PBMC); assay: B cell proliferation assay (SAC plus Interleukin-2, 3H-thymidine); assay type: cell-based; conditions: peptide 10 micrograms per ml, 3H-thymidine incorporation
Procedure: as §1, with “The B” for “The T”, “the B” for “the T”, “mitogen Staphylococcus aureus Cowans I (SAC) plus Interleukin-2,” for “mitogen phytohemagglutinin (PHA),”, “cell” for “cell proliferating”, “of B” for “of T”

RAW 264.7 cells = assay: Phagocytosis assay (Fluorescein-labeled Escherichia coli, flow cytometry); assay type: cell-based, mouse; conditions: peptide 10 micrograms per ml, 30 min before Fluorescein-labeled E. coli
Procedure: Cells were incubated in 12×75 mm tubes at 37° C. with test peptide—10 micrograms per ml—for 30 min prior to adding Fluorescein-labeled Escherichia coli bacteria as the agent to be ingested. […] The samples were then analyzed by flow cytometry to determine the amount of phagocytosis as a function of brightness (the greater the phagocytic activity, the more fluorescence in the macrophage population). Data are reported as % positive and the mean fluorescence intensity (MFI) of positively stained cells.

A549 cells [5] = assay: Apoptosis induction assay (Annexin-5); assay type: cell-based, human; conditions: apoptosis in A549 cells, peptide 10 micrograms per ml, 24 hours
Excerpt: Human A549 cells (carcinomic human alveolar basal epithelial cells) were utilized in the experiments employing the Annexin-5 apoptosis assay. Annexin-5 is a member of a highly conserved protein family that binds acidic phospholipids in a calcium-dependent manner. […] Phosphatidylserine is translocated from the inner side of the plasma membrane to the outer layer when cells undergo death by apoptosis or cell necrosis and serves as a signal by which cell destined for death are recognized by phagocytes. Test peptide—10 micrograms per ml—were exposed for 24 hours to the A549 cells before they were analyzed for signs of apoptosis.

A549 cells [6] = assay: Apoptosis prevention assay (C2 ceramide, Annexin-5); assay type: cell-based, human; conditions: A549 cells pretreated 30 min with peptide 10 micrograms per ml, then C2 ceramide
Excerpt: Human A549 cells (carcinomic human alveolar basal epithelial cells) were utilized in the experiments employing the Annexin-5 apoptosis assay. Annexin-5 is a member of a highly conserved protein family that binds acidic phospholipids in a calcium-dependent manner. […] Phosphatidylserine is translocated from the inner side of the plasma membrane to the outer layer when cells undergo death by apoptosis or cell necrosis and serves as a signal by which cell destined for death are recognized by phagocytes. A549 cells were pretreated for 30 min with test peptide—10 micrograms per ml—followed by the exposure to C2 ceramide. Ceramide mediates cell apoptosis through the activation of the mitogen activating protein kinase (MAPK) and the stress activated kinase (JNK/SAPK). C2 ceramide is a synthetic, membrane soluble analog of ceramide.

[7] = system: spleen cells of Ovalbumin-immunized Balb/c mice; assay: Th1/Th2 cytokine profiling assay (Ovalbumin-restimulated spleen cells, CBA kit); assay type: cell-based, mouse; conditions: peptide 10 micrograms per ml; Ovalbumin restimulation; 72 hours
Procedure: The Balb/c mice (originated in 1923, it is a popular strain and is used in many different research disciplines. […] On day 50, spleens of the mice were harvested (3 weeks after last boost with Ovalbumin). Cells were cultured (2×10^5/well in triplicate) and incubated with culture medium or test peptide—10 micrograms per ml—for 30 min. Thereafter, additional Ovalbumin was added to the cells at 10 micrograms/ml for in vitro restimulation of the cells. 72 hours later, cell supernatants were harvested and assayed using the Becton Dickinson Mouse Th1/Th2 Cytokine CBA Kit. This kit can be used to measure Interleukin-2 (IL-2), Interleukin-4 (IL-4), Interleukin-5 (IL-5), Interferon-γ (IFN-γ), and Tumor Necrosis Factor-α (TNF-α) protein levels in a single sample. The kit performance has been optimized for analysis of physiologically relevant concentrations (pg/ml levels) of specific cytokine proteins in tissue culture supernatants and serum samples.

[8] = system: macrophages differentiated from human PBMC; assay: TNF alpha production assay (LPS-stimulated macrophages, ELISA); assay type: cell-based; conditions: peptide 10 micrograms per ml, 30 min before lipopolysaccharide 200 ng/ml, overnight
Procedure: Human Peripheral Blood Mononuclear Cells (PBMC) were obtained from normal human donors. The macrophages were prepared by adherence of PBMC to the plastic wells of the plates. After 8 days in culture in the presence of recombinant human macrophage-colony stimulating factor at 2 ng/ml, differentiated macrophages were preincubated with test peptide—10 micrograms per ml—for 30 min, followed by in-well stimulation by the addition of lipopolysaccharide at a final concentration of 200 ng/ml. Not stimulated macrophages served as negative background control. After overnight incubation, supernatants from the control and LPS-stimulated cultures were harvested and assayed for TNF alpha production employing a TNF alpha specific ELISA.

[9] = system: Primary Human endothelial cells (HUVEC); assay: Endothelial cell migration assay; assay type: cell-based; conditions: peptide 10 micrograms per ml, 22 hours
Procedure: Endothelial cell migration is a prerequisite for the process of neo-vascularization or angiogenesis which is crucial for on-site recruitment of blood vessel formation. […] Thereafter, designated concentration of test peptide—10 micrograms per ml—was added in duplicate wells. The endothelia were allowed to migrate for 22 hours at 37° C., then, migrated cells were fixed and stained with Hoechst 33342 dye. Images of 3 fields per insert were taken and the number of migrated cells per field were quantified using the ImageProPlus software. Data were analyzed for the average number of the migrated cells and standard deviation of six data points for each treatment condition. Active test peptide against HUVEC migration was determined based on 50% inhibition of migrated cells as compared with the control. Statistic p values were computed using the Student's t-test.

HUVEC = assay: Endothelial tube formation assay; assay type: cell-based, human; conditions: peptide 10 micrograms per ml, 20 hours
Procedure: The endothelial tube formation assay is based on the ability of endothelial cells to form three-dimensional capillary-like tubular structures when cultured on a gel of basement membrane extract. The endothelial tube formation assay represents a powerful model for studying inhibition and induction of angiogenesis. Pre-labeled HUVEC with Calcein AM were seeded in a 96-well culture plate coated with extracellular metrix (Chemicon international Cat. ECM625) and treated with test peptide—10 micrograms per ml—in full growth medium. Positive control wes vehicle only. The endothelial cells were allowed to form tubes foe 20 hours and were then examined under an inverted fluorescent microscope. Duplicate wells for each treatment were photographed and quantitatively analyzed for an average tubule length using image analysis software ImageProPlus. Raw data were expressed as average tubule lengths in pixels±standard deviation. Statistic p values were computed using the Student's t-test.

in vitro [10] = conditions: human, CEM-SS cells
in vitro [11] = conditions: human, MRC-5 cells (embryonal lung fibroblasts)
Procedure: as §2

[12] = Cytotoxicity in HepG2-2.2.15 cells (dye uptake cell viability); conditions: human

SMILES: Nc1ccn([C@@H]2CS[C@H](CO)O2)c(=O)n1 [3TC, Lamivudine, reference compound]
- % Cell viability (HepG2-2.2.15 cells): 95.8%

SMILES: Cc1cn([C@H]2C[C@H](N=[N+]=[N-])[C@@H](CO)O2)c(=O)[nH]c1=O [AZT, zidovudine]
- % CPE reduction in HIV-1 infected CEM-SS cells (HIV-1IIIB): 99%

SMILES: Nc1nc(O)c2ncn(COC(CO)CO)c2n1 [Ganciclovir, reference compound]
- % Cell viability (MRC-5 cells): 100%
- % plaque reduction (HCMV strain AD169): 100%

SMILES: CC[C@H](C)[C@@H]1NC(=O)[C@H](CCC(=O)O)NC(=O)[C@@H](NC(=O)[C@@H](NC(=O)CNC(=O)[C@@H]2CCCN2)[C@@H](C)O)CSSC[C@@H]2NC(=O)[C@H](C)NC(=O)[C@H](C)NC(=O)[C@H](Cc3ccc(O)cc3)NC(=O)[C@H](C)NC(=O)[C@H](CSSC[C@@H](C(=O)O)NC(=O)CNC(=O)[C@H]([C@@H](C)O)NC2=O)NC1=O [Guanylin, Pro-Gly-Thr-Cys-Glu-Ile-Cys-Ala-Tyr-Ala-Ala-Cys-Thr-Gly-Cys-OH] (H-PGTCEICAYAACTGC-OH; disulfide 4-12, 7-15 (inferred); N-terminus assumed)
- % CPE reduction in HIV-1 infected CEM-SS cells (HIV-1IIIB): 13.2%
- % inhibition of HBV replication in HEP G2 cells [1]: 21.7%
- Cell cycle analysis G0/G1 (A549 cells [2]): 58.7
- Cell cycle analysis G2/M (A549 cells [2]): 9.8
- Cell cycle analysis S (A549 cells [2]): 31.5
- % of PHA induced control [3]: 93.7%
- % of SAC/IL2 induced control [4]: 97.0%
- % of control phagocytosis (RAW 264.7 cells): 105.9%
- % of induction (A549 cells [5]): 1.5%
- % prevention of ceramide induced apoptosis (A549 cells [6]): 0.0%
- IFNγ spleen cells; TH1 response (% of control) [7]: 62.0 % of control
- IL-2 spleen cells (% of control) [7]: 135.5 % of control
- IL-4 spleen cells; TH2 response (% of control) [7]: 143.8 % of control
- IL-5 spleen cells; TH2 response (% of control) [7]: 82.6 % of control
- TNF-a spleen cells; TH1 response (% of control) [7]: 108.5 % of control
- % of LPS induction [8]: 96.6%
- % inhibition of migration [9]: 24.0%
- % inhibition of tube formation (HUVEC): 10.0%
- viability at 10 micrograms per ml (in vitro [10]): 100%
- viability at 144 h (in vitro [11]): 100%
- % plaque reduction (HCMV strain AD169): 0.0%
- viability at 144 h, 10 micrograms per ml [12]: 91.2%

SMILES: CC(C)(C)NC(=O)[C@@H]1CN(Cc2cccnc2)CCN1C[C@@H](O)C[C@@H](Cc1ccccc1)C(=O)N[C@H]1c2ccccc2C[C@H]1O [Indinavir, indinavir]
- % CPE reduction in HIV-1 infected CEM-SS cells (HIV-1IIIB): 100%
